The target of this experiment is T1, cholesteryl ester transfer protein (Homo sapiens, UniProt P11597).
T1 construct: As a source of cholesteryl ester transfer protein, plasma from healthy humans was used; from tissue; host or cells: plasma from healthy humans
T1 sequence (P11597 18-493): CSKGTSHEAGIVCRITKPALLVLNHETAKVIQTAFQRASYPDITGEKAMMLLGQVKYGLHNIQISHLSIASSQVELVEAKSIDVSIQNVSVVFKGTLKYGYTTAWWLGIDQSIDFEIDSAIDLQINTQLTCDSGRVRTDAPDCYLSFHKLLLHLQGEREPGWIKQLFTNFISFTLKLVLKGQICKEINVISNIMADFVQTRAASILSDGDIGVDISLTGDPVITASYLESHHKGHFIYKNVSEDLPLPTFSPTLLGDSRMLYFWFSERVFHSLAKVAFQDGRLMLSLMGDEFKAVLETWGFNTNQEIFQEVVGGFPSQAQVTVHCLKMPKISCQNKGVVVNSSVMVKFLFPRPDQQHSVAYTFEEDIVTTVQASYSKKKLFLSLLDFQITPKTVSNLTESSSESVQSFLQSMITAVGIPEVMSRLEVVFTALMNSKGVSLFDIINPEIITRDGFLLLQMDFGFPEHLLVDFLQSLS
In words: In vitro test for the ability to inhibit cholesteryl ester transfer. Format: biochemical. Conditions: [3H]-cholesteryl oleate transfer from rHDL-agarose to LDL; human plasma as CETP source; 37° C.; 16-10000 nM, duplicate. The source says:
In Vitro Test for the Ability to Inhibit Cholesteryl Ester Transfer
1. Preparation of Cholesteryl Ester Donor
In order to prepare a cholesteryl ester donor to be used in the test, a radiolabeled recombinant HDL containing [^3H]-cholesteryl oleate (GE healthcare, TRK886, 3.5 μCi/mg of apoA-1) and apoA-1 was synthesized. Then, rHDL-agarose obtained by immobilizing the recombinant HDL with CNBr-activated Sepharose 4B resin (Amersham Biosciences, Sweden) was used in the test.
2. Cholesteryl Ester Transfer Test
As a source of cholesteryl ester transfer protein, plasma from healthy humans was used, and as cholesteryl ester receptor, LDL from healthy humans was used. Each of test compounds was added to be final concentrations of 16, 80, 400, 2000 and 10000 nM and tested in duplicate. In order to test cholesteryl ester transfer, 20 μl of plasma, 50 μl of LDL (0.25 mg/ml) and 50 μl of rHDL-agarose (0.25 mg/ml) were mixed with each other, and a solution of each test compound was added thereto and reacted thereto at 37° C. Then, the reaction solution was centrifuged at 4° C. for 3 minutes, thereby the reaction was stopped. 150 μl of the supernatant was transferred into a 96-well plate for radioactivity measurement, and the radioactivity thereof was measured with a beta-ray detector.
3. Statistical Processing
The ratio of [^3H]-cholesteryl oleate transferred from HDL to LDL was determined, and based on the determined ratio, the IC50 value of each compound was determined using GraphPad Prism 5.0.

`COc1cc(F)c(OC(C)C)cc1C1=C(CN2C(=O)O[C@H](c3cc(C(F)(F)F)cc(C(F)(F)F)c3)[C@@H]2C)CC(C)(C)CC1` [Compound 241, (4S,5R)-5-(3,5-bis(trifluoromethyl)phenyl)-3-((2-(4-fluoro-5-isopropoxy-2-methoxyphenyl)-5,5-dimethylcyclohex-1-enyl)methyl)-4-methyloxazolidin-2-one]: the IC50 (in general, the concentration needed to halve the response being measured) was 390 nM.

The compound `COc1cc(C(F)(F)F)c(N(C)C(=O)C(F)(F)F)cc1C1=C(CN2C(=O)O[C@H](c3cc(C(F)(F)F)cc(C(F)(F)F)c3)[C@@H]2C)CC(C)(C)CC1` [Compound 227, N-(5-(2-(((4S,5R)-5-(3,5-bis(trifluoromethyl)phenyl)-4-methyl-2-oxooxazolidin-3-yl)methyl)-4,4-dimethylcyclohex-1-enyl)-4-methoxy-2-(trifluoromethyl)phenyl)-2,2,2-trifluoro-N-methylacetamide] displayed an IC50 of 140 nM.

Compound `COc1cc(F)c(C(C)C)cc1C1=C(CN2C(=O)O[C@H](c3cc(C(F)(F)F)cc(C(F)(F)F)c3)[C@@H]2C)CC(C(C)(C)C)CC1` (stereo partly drawn) [Compound 101, (4S,5R)-5-(3,5-bis(trifluoromethyl)phenyl)-3-((5-tert-butyl-2-(4-fluoro-5-isopropyl-2-methoxyphenyl)cyclohex-1-enyl)methyl)-4-methyloxazolidin-2-one] registered an IC50 of 70 nM.

As for `COc1ccc(C2(C(N)=O)CC2)cc1C1=C(CN2C(=O)O[C@H](c3cc(C(F)(F)F)cc(C(F)(F)F)c3)[C@@H]2C)CC(C)(C)CC1` [Compound 190, 1-(3-(2-(((4S,5R)-5-(3,5-bis(trifluoromethyl)phenyl)-4-methyl-2-oxooxazolidin-3-yl)methyl)-4,4-dimethylcyclohex-1-enyl)-4-methoxyphenyl)cyclopropanecarboxamide], it took 10 nM to reach half-maximal inhibition (IC50).

Regarding `COc1cc(F)c(C(C)C)cc1C1=C(CN2C(=S)O[C@H](c3cc(C(F)(F)F)cc(C(F)(F)F)c3)[C@@H]2C)CCCC1` [Compound 28, (4S,5R)-5-(3,5-bis(trifluoromethyl)phenyl)-3-((2-(4-fluoro-5-isopropyl-2-methoxyphenyl)cyclohex-1-enyl)methyl)-4-methyloxazolidine-2-thione], the midpoint of inhibition, the IC50, lay at 390 nM.

`COc1cc(F)c(C(C)=O)cc1C1=C(CN2C(=O)O[C@H](c3cc(C(F)(F)F)cc(C(F)(F)F)c3)[C@@H]2C)CC(C)(C)CC1` [Compound 184, (4S,5R)-3-((2-(5-acetyl-4-fluoro-2-methoxyphenyl)-5,5-dimethylcyclohex-1-enyl)methyl)-5-(3,5-bis(trifluoromethyl)phenyl)-4-methyloxazolidin-2-one] gave an IC50 of 20 nM.

Turning to `COc1ccc(C(C)O)cc1C1=C(CN2C(=O)O[C@H](c3cc(C(F)(F)F)cc(C(F)(F)F)c3)[C@@H]2C)CC(C)(C)CC1` (stereo partly drawn) [Compound 103, (4S,5R)-5-(3,5-bis(trifluoromethyl)phenyl)-3-((2-(5-(1-hydroxyethyl)-2-methoxyphenyl)-5,5-dimethylcyclohex-1-enyl)methyl)-4-methyloxazolidin-2-one], the IC50 was found to be 30 nM.

As to `COc1ncc(C(F)(F)F)cc1C1=C(CN2C(=O)O[C@H](c3cc(C(F)(F)F)cc(C(F)(F)F)c3)[C@@H]2C)CC(C)(C)CC1` [Compound 316, (4S,5R)-5-(3,5-bis(trifluoromethyl)phenyl)-3-((2-(2-methoxy-5-(trifluoromethyl)pyridin-3-yl)-5,5-dimethylcyclohex-1-enyl)methyl)-4-methyloxazolidin-2-one], it took 30 nM to reach half-maximal inhibition (IC50).

On to `COc1ccc(N(C)C(=O)C(C)(C)OC(C)=O)cc1C1=C(CN2C(=O)O[C@H](c3cc(C(F)(F)F)cc(C(F)(F)F)c3)[C@@H]2C)CC(C)(C)CC1` [Compound 243, 1-((3-(2-(((4S,5R)-5-(3,5-bis(trifluoromethyl)phenyl)-4-methyl-2-oxooxazolidin-3-yl)methyl)-4,4-dimethylcyclohex-1-enyl)-4-methoxyphenyl)(methyl)amino)-2-methyl-1-oxopropan-2-yl acetate], for which the IC50 is 9 nM.

Consider `COc1ccc(C2(C#N)CC2)cc1C1=C(CN2C(=O)O[C@H](c3cc(C(F)(F)F)cc(C(F)(F)F)c3)[C@@H]2C)CC(C)(C)CC1` [Compound 189, 1-(3-(2-(((4S,5R)-5-(3,5-bis(trifluoromethyl)phenyl)-4-methyl-2-oxooxazolidin-3-yl)methyl)-4,4-dimethylcyclohex-1-enyl)-4-methoxyphenyl)cyclopropanecarbonitrile], for which it took 20 nM to reach half-maximal inhibition (IC50).

Regarding `COc1ccc(OC(F)(F)F)cc1C1=C(CN2C(=O)O[C@H](c3cc(C(F)(F)F)cc(C(F)(F)F)c3)[C@@H]2C)CC(C)(C)CC1` [Compound 117, (4S,5R)-5-(3,5-bis(trifluoromethyl)phenyl)-3-((2-(2-methoxy-5-(trifluoromethoxy)phenyl)-5,5-dimethylcyclohex-1-enyl)methyl)-4-methyloxazolidin-2-one], the IC50 worked out at 80 nM.

For the compound `CCc1cc(OC)c(C2=C(CN3C(=O)O[C@H](c4cc(C(F)(F)F)cc(C(F)(F)F)c4)[C@@H]3C)CC(C)(C)CC2)cc1N(C)C(C)=O` [Compound 234, N-(5-(2-(((4S,5R)-5-(3,5-bis(trifluoromethyl)phenyl)-4-methyl-2-oxooxazolidin-3-yl)methyl)-4,4-dimethylcyclohex-1-enyl)-2-ethyl-4-methoxyphenyl)-N-methylacetamide], the midpoint of inhibition, the IC50, lay at 20 nM.

In turn, `COc1ccc(C2=NCCO2)cc1C1=C(CN2C(=O)O[C@H](c3cc(C(F)(F)F)cc(C(F)(F)F)c3)[C@@H]2C)CC(C)(C)CC1` [Compound 185, (4S,5R)-5-(3,5-bis(trifluoromethyl)phenyl)-3-((2-(5-(4,5-dihydrooxazol-2-yl)-2-methoxyphenyl)-5,5-dimethylcyclohex-1-enyl)methyl)-4-methyloxazolidin-2-one] displayed an IC50 of 180 nM.

The compound `COc1cc(F)c(C(C)C)cc1C1=C(CN2C(=O)O[C@H](c3cc(C(F)(F)F)cc(C(F)(F)F)c3)[C@@H]2C)CCC(C)(C)C1` [Compound 109, (4S,5R)-5-(3,5-bis(trifluoromethyl)phenyl)-3-((2-(4-fluoro-5-isopropyl-2-methoxyphenyl)-4,4-dimethylcyclohex-1-enyl)methyl)-4-methyloxazolidin-2-one] gave an IC50 of 20 nM.

As for `COc1ccc(NC(C)=O)cc1C1=C(CN2C(=O)O[C@H](c3cc(C(F)(F)F)cc(C(F)(F)F)c3)[C@@H]2C)CC(C(F)(F)F)CC1` (stereo partly drawn) [Compound 196, N-(3-(2-(((4S,5R)-5-(3,5-bis(trifluoromethyl)phenyl)-4-methyl-2-oxooxazolidin-3-yl)methyl)-4-(trifluoromethyl)cyclohex-1-enyl)-4-methoxyphenyl)acetamide], the IC50 worked out at 490 nM.

The compound `COc1ccc(CC(C)(C)c2nnn(C)n2)cc1C1=C(CN2C(=O)O[C@H](c3cc(C(F)(F)F)cc(C(F)(F)F)c3)[C@@H]2C)CC(C)(C)CC1` [Compound 341, (4S,5R)-5-(3,5-bis(trifluoromethyl)phenyl)-3-((2-(2-methoxy-5-(2-methyl-2-(2-methyl-2H-tetrazol-5-yl)propyl)phenyl)-5,5-dimethylcyclohex-1-enyl)methyl)-4-methyloxazolidin-2-one] displayed an IC50 of 13 nM.

`COc1cc(F)c(C2(C)CC2)cc1C1=C(CN2C(=O)O[C@H](c3cc(C(F)(F)F)cc(C(F)(F)F)c3)[C@@H]2C)CC2(CC1)CC2` [Compound 303, (4S,5R)-5-(3,5-bis(trifluoromethyl)phenyl)-3-((6-(4-fluoro-2-methoxy-5-(1-methylcyclopropyl)phenyl)spiro[2.5]oct-5-en-5-yl)methyl)-4-methyloxazolidin-2-one] returned an IC50 of 5 nM.

As for `COc1ccc(C(C)(C)O)cc1C1=C(CN2C(=O)O[C@H](c3cc(C(F)(F)F)cc(C(F)(F)F)c3)[C@@H]2C)CCCC1` [Compound 82, (4S,5R)-5-(3,5-bis(trifluoromethyl)phenyl)-3-((2-(5-(2-hydroxypropan-2-yl)-2-methoxyphenyl)cyclohex-1-enyl)methyl)-4-methyloxazolidin-2-one], the half-maximal inhibitory concentration (IC50) came out at 80 nM.

`COc1cc(F)c(C2CC2)cc1C1=C(CN2C(=O)O[C@H](c3cc(C(F)(F)F)cc(C(F)(F)F)c3)[C@@H]2C)CC(C)(C)CC1` [Compound 237, (4S,5R)-5-(3,5-bis(trifluoromethyl)phenyl)-3-((2-(5-cyclopropyl-4-fluoro-2-methoxyphenyl)-5,5-dimethylcyclohex-1-enyl)methyl)-4-methyloxazolidin-2-one] gave a 50% inhibitory concentration (IC50) of 9 nM.
